Counter-ions that a name gives are not always drawn.
Assays:
[1] = biological target: T1, epithelial sodium channels (ENaC) (Homo sapiens, UniProt P37088+P51168+P51170); experiment: In vitro sodium channel blocking activity (short circuit current, Ussing chambers), human airway cells; format: cell-based; conditions: freshly excised cell from human airways
T1 construct: endogenous in cells; host or cells: primary human airway epithelial cells cultured at air-liquid interface
T1 sequence (P37088 1-669): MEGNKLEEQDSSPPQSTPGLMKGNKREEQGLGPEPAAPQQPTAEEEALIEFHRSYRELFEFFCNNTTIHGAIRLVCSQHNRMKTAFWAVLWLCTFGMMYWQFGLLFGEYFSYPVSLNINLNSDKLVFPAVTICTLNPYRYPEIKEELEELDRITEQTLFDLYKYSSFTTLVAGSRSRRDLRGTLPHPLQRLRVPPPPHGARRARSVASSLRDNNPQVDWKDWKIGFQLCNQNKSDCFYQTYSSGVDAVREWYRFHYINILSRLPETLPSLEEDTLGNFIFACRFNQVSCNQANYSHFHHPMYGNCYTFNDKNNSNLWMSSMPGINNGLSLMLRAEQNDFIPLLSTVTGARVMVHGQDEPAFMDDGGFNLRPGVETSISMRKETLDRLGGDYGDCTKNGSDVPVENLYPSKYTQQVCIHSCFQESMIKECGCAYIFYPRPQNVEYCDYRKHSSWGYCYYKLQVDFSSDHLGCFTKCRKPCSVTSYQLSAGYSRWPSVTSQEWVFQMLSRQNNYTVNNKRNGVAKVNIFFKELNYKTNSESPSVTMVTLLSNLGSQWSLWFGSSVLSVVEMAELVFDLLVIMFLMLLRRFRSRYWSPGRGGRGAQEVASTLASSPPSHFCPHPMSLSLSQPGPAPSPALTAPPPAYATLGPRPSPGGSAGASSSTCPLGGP
T1 sequence (P51168 1-640): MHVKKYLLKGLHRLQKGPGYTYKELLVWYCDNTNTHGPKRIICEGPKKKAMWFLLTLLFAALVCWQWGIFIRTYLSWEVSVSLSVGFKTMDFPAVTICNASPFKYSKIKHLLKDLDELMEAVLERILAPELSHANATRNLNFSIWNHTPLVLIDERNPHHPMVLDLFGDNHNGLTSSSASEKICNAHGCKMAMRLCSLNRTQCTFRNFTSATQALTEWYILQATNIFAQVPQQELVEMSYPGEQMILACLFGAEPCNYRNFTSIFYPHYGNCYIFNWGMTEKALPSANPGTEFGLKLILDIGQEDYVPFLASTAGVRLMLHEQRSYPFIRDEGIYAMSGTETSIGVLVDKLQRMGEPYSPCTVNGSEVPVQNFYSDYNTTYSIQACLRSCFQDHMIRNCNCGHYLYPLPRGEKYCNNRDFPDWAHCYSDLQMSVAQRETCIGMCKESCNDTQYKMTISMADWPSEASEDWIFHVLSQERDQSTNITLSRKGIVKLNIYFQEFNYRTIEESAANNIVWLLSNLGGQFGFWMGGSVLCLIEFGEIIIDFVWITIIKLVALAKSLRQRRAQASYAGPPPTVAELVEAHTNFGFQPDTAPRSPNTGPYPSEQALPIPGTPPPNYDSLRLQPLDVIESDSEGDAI
T1 sequence (P51170 1-649): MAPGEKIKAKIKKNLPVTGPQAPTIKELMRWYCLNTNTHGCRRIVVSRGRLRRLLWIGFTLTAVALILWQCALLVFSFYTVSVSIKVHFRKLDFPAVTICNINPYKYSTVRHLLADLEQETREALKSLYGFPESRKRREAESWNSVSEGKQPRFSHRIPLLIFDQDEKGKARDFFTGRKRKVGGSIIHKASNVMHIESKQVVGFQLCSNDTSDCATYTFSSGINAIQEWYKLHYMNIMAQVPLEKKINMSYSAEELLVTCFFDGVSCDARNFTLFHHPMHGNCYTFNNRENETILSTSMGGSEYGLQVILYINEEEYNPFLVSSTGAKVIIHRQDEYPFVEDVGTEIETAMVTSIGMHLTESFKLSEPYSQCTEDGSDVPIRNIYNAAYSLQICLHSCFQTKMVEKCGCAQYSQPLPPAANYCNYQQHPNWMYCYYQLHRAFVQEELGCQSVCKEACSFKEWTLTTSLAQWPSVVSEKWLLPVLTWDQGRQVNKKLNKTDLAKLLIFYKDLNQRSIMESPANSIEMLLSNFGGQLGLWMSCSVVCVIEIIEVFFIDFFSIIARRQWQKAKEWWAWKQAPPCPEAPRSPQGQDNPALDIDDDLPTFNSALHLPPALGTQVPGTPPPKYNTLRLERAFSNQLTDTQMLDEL
Method: In Vitro Measure of Sodium Channel Blocking Activity and Reversibility
(§1) One assay used to assess mechanism of action and/or potency of the compounds of the present invention involves the determination of lumenal drug inhibition of airway epithelial sodium currents measured under short circuit current (ISC) using airway epithelial monolayers mounted in Ussing chambers. Cells obtained from freshly excised human, dog, sheep or rodent airways are seeded onto porous 0.4 micron Snapwell™ Inserts (CoStar), cultured at air-liquid interface (ALI) conditions in hormonally defined media, and assayed for sodium transport activity (ISC) while bathed in Krebs Bicarbonate Ringer (KBR) in Using chambers. All test drug additions are to the lumenal bath with half-log dose addition protocols (from 1×10^−11 M to 3×10^−5 M), and the cumulative change in ISC (inhibition) recorded. All drugs are prepared in dimethyl sulfoxide as stock solutions at a concentration of 1×10^−2 M and stored at −20° C. […] After the maximal concentration ([…]) is administered, the lumenal bath is exchanged three times with fresh drug-free KBR solution, and the resultant ISC measured after each wash for approximately 5 minutes in duration. Reversibility is defined as the percent return to the baseline value for sodium current after the third wash. All data from the voltage clamps are collected via a computer interface and analyzed off-line.
(§2) Dose-effect relationships for all compounds are considered and analyzed by the Prism 3.0 program.

[2] = biological target: T2, epithelial sodium channels (ENaC) (Canis lupus familiaris, UniProt A0A8I3MKE6+A0A8I3Q679+Q95165); experiment: In vitro sodium channel blocking activity (short circuit current, Ussing chambers), dog airway cells; format: cell-based; conditions: freshly excised cell from dog airways
T2 sequence (A0A8I3Q679 1-649): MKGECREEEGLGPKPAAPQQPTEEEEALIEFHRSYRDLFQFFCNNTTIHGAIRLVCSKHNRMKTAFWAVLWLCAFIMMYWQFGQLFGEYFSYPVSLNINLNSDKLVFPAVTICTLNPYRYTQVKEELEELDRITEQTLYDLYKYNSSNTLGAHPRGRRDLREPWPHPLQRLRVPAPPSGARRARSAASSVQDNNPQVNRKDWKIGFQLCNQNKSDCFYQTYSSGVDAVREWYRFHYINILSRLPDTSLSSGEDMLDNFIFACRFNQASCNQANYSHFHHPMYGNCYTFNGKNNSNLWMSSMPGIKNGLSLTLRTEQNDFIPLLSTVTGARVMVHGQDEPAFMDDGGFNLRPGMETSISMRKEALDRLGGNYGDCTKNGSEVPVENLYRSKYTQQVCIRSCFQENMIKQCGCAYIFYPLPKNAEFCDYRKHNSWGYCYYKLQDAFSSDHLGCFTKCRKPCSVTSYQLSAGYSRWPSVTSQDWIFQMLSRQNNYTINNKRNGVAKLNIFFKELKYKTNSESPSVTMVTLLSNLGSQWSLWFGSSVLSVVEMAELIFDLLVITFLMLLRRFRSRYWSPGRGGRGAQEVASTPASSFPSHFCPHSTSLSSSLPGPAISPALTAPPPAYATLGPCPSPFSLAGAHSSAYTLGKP
T2 sequence (Q95165 1-641): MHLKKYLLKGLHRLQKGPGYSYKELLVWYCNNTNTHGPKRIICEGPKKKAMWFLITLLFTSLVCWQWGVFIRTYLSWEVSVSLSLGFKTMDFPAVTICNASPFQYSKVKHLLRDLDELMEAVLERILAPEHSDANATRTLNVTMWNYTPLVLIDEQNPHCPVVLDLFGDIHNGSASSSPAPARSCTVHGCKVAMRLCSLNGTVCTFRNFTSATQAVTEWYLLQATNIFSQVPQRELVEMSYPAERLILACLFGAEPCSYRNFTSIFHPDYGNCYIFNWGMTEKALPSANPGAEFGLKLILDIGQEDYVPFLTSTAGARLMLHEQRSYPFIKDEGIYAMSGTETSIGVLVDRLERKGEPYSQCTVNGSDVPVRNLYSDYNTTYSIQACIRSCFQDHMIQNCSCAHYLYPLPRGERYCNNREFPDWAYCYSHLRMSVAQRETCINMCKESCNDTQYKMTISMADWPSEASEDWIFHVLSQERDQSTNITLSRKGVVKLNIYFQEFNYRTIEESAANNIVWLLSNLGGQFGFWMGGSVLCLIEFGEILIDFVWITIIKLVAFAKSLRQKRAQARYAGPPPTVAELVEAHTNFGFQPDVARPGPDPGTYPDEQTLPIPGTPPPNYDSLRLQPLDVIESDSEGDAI
T2 sequence (A0A8I3MKE6 1-646): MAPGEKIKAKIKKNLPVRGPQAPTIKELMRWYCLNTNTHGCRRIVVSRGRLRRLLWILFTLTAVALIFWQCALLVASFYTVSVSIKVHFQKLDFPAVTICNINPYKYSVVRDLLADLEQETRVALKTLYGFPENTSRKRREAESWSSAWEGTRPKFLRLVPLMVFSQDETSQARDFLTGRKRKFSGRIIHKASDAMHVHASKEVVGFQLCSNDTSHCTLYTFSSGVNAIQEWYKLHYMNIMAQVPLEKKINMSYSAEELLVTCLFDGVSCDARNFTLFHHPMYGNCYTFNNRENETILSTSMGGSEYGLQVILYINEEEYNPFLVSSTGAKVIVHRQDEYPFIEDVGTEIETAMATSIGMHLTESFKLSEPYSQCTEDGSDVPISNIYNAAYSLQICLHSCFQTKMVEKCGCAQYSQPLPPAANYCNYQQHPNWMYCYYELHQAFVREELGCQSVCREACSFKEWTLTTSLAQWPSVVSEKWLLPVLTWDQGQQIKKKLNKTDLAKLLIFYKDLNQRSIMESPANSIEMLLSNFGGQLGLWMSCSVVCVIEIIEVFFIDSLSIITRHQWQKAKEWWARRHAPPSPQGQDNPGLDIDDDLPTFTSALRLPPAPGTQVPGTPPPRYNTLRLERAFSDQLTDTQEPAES
Method: as §1, with “Reversibility is defined as the percent return to the baseline value for sodium current after the third wash.” left out
as §2

| Structure (SMILES) | melting point | Potency of Sodium Channel Blockade Relative to Amiloride [1] | IC50 [2] |
| --- | --- | --- | --- |
| C[C@H](O)C(=O)O.N=C(NCCCCc1ccc(OCC(O)CO)c2ccccc12)NC(=O)c1cc(Cl)c(N)cc1N [Compound 26, 2,4-Diamino-5-chloro-N—(N-{4-[4-(2,3-dihydroxypropoxy)naphthalen-1-yl]butyl}carbamimidoyl)benzamide L-(+)-Lactic Acid Salt] | 115 to 118 °C | 30 | – |
| N=C(NCCCCc1ccc2cc(OCC(O)CO)ccc2c1)NC(=O)c1nc(Cl)c(N)nc1N (centres unmarked) [Compound 34, 3,5-Diamino-6-chloro-N—(N-{4-[6-(2,3-dihydropropoxy)naphthalen-2-yl]butyl}carbamimidoyl)pyrazine-2-carboxamide Methanesulfonic Acid Salt] | – | 63 | – |
| CS(=O)(=O)O.N=C(NCCCCc1ccc(OCCCN)c2ccccc12)NC(=O)c1nc(Cl)c(N)nc1N [Compound 72, 3,5-Diamino-N—(N-{4-[4-(3-aminopropoxy)naphthalen-1-yl]butyl}carbamimidoyl)-6-chloropyrazine-2-carboxamide Methanesulfonic Acid Salt] | – | 164 | – |
| CC1OC[C@@H](O)[C@H]([C@H](O)[C@@H](O)CNCCCOc2ccc3cc(CCCCN)ccc3c2)O1 (some centres unmarked) [Compound 105] | – | – | 23.5 nM |
